Where no end group is shown, it is not given here.

The test system of the first assay is nectin 4 protein on NIH:OVCAR-5 cells. Description: Effect of peptides on anti-Nectin-4 antibody binding to cells as determined by flow cytometry. The class given is cell-based, human. The following applies: Run Three; 150 μg/mL peptide, 30 minutes; Control 3 = 13,070.20. How it is done: Confluent monolayers of cells were detached from 75 cm^2 tissue culture flasks using Accutase cell dissociation buffer (Innovative Cell Technologies, San Diego, Calif.), washed, and labeled with mouse IgG or mAbs against Nectin-4 or Nectin-1 (2.5 μg/10^6 cells) in Flow Buffer [phosphate buffered saline (PBS) containing 2.5% newborn calf serum and 0.02% sodium azide] for 30 min at 4° C.. Cells were washed and incubated with goat anti-mouse IgG F(ab′)2 (Jackson ImmunoResearch, West Grove, Pa.), then washed again and incubated with streptavidin-allophycocyanin conjugate (Jackson ImmunoResearch, West Grove, Pa.) for 30 min each. Cells were washed and fixed in Flow Buffer containing 1% formaldehyde and analyzed in the University of Minnesota Flow Cytometry Resource with a BD Accuri™ C6 flow cytometer (BD Biosciences, San Jose, Calif.) using the Accuri™ software.
Briefly, NIH:OVCAR-5 cells that natively express a moderate amount of nectin 4 protein were incubated for 30 minutes in 150 μg/mL of soluble peptide in DMSO. After incubation, the cells were washed, and then triple antibody stained using mouse anti-nectin 4 (or IgG control) primary antibody, biotinylated goat anti-mouse secondary antibody, and streptavidin APC tertiary antibody. Finally, utilizing the University of Minnesota flow core's Accuri C6 flow cytometer, the relative antibody binding affinity for control and peptide-treated samples was quantitated and compared. Data was collected for each of the 57 peptides generated.
(A flow cytometer gives signals particle by particle.)
Regarding “TWQKSTNGSKQNV-NH2 (listed as Homo sapiens) [Peptide 33]”, the “N4 MFI” value is recorded as 10,425.01.

As for “TNWIEGTQAVLRAKKGQ-NH2 (listed as Homo sapiens) [Peptide 40]”, the “N4 MFI” value was 10,121.20.

For “LSRLELEDEGVYIC-NH2 (listed as Homo sapiens) [Peptide 37]”, the “N4 MFI” value was 46,393.69.

On to “VLAPYRERVEFLRP-NH2 (listed as Homo sapiens) [Peptide 35]”, for which the “N4 MFI” value is reported as 15,767.33.

On to “GFIGTDVVLHCSFA-NH2 (listed as Homo sapiens) [Peptide 31]”, for which the “N4 MFI” value is on record as 15,498.21.

As to “ESQLNLTVMAKPTN-NH2 (listed as Homo sapiens) [Peptide 39]”, the “N4 MFI” value is 8,719.33.

On to “NVAIYNPSMGVSVL-NH2 (listed as Homo sapiens) [Peptide 34]”, for which the “N4 MFI” value is reported as 14,542.93.

Still in this assay, the particulars now being: Run Three; Control 3 = 9.83.
Regarding “TWQKSTNGSKQNV-NH2 (listed as Homo sapiens) [Peptide 33]”, the “N4 MFI/IgG MFI” value is recorded as 8.31.

For the substance “TNWIEGTQAVLRAKKGQ-NH2 (listed as Homo sapiens) [Peptide 40]”, the “N4 MFI/IgG MFI” value turned out to be 7.11.

With “LSRLELEDEGVYIC-NH2 (listed as Homo sapiens) [Peptide 37]”, the “N4 MFI/IgG MFI” value is reported as 11.38.

Take “VLAPYRERVEFLRP-NH2 (listed as Homo sapiens) [Peptide 35]”: the “N4 MFI/IgG MFI” value came out at 8.59.

As to “GFIGTDVVLHCSFA-NH2 (listed as Homo sapiens) [Peptide 31]”, the “N4 MFI/IgG MFI” value stood at 8.83.

As to “ESQLNLTVMAKPTN-NH2 (listed as Homo sapiens) [Peptide 39]”, the “N4 MFI/IgG MFI” value amounted to 4.24.

Turning to “NVAIYNPSMGVSVL-NH2 (listed as Homo sapiens) [Peptide 34]”, the “N4 MFI/IgG MFI” value was 9.77.

The assay is the same for the next values; noted with them: Run Three; IgG control primary antibody; Control 3 = 1330.
In the case of “TWQKSTNGSKQNV-NH2 (listed as Homo sapiens) [Peptide 33]”, the “IgG MFI” value was 1255.

Take “TNWIEGTQAVLRAKKGQ-NH2 (listed as Homo sapiens) [Peptide 40]”: the “IgG MFI” value was 1423.

Consider “LSRLELEDEGVYIC-NH2 (listed as Homo sapiens) [Peptide 37]”, for which the “IgG MFI” value stood at 4078.

Consider “VLAPYRERVEFLRP-NH2 (listed as Homo sapiens) [Peptide 35]”, for which the “IgG MFI” value is 1835.

“GFIGTDVVLHCSFA-NH2 (listed as Homo sapiens) [Peptide 31]”: the “IgG MFI” value is listed as 1756.

On to “ESQLNLTVMAKPTN-NH2 (listed as Homo sapiens) [Peptide 39]”, for which the “IgG MFI” value is on record as 2056.

For “NVAIYNPSMGVSVL-NH2 (listed as Homo sapiens) [Peptide 34]”, the “IgG MFI” value is 1489.

Still in this assay, the particulars now being: Run Three; antibody binding relative to Control 3 = 100.00.
“TWQKSTNGSKQNV-NH2 (listed as Homo sapiens) [Peptide 33]”: the “nectin-4 antibody binding, percent of control” value is listed as 78.11.

Take “TNWIEGTQAVLRAKKGQ-NH2 (listed as Homo sapiens) [Peptide 40]”: the “nectin-4 antibody binding, percent of control” value was determined as 74.09.

For “LSRLELEDEGVYIC-NH2 (listed as Homo sapiens) [Peptide 37]”, the “nectin-4 antibody binding, percent of control” value amounted to 360.43.

As to “VLAPYRERVEFLRP-NH2 (listed as Homo sapiens) [Peptide 35]”, the “nectin-4 antibody binding, percent of control” value worked out at 118.67.

Take “GFIGTDVVLHCSFA-NH2 (listed as Homo sapiens) [Peptide 31]”: the “nectin-4 antibody binding, percent of control” value is 117.05.

As to “ESQLNLTVMAKPTN-NH2 (listed as Homo sapiens) [Peptide 39]”, the “nectin-4 antibody binding, percent of control” value is 56.76.

As to “NVAIYNPSMGVSVL-NH2 (listed as Homo sapiens) [Peptide 34]”, the “nectin-4 antibody binding, percent of control” value is recorded as 111.19.

The same assay, now with this note: Run Two; 150 μg/mL peptide, 30 minutes; Control 2 = 49,491.
For the substance “RVDGDTLGFPPLTT-NH2 (listed as Homo sapiens) [Peptide 23]”, the “N4 MFI” value was 18,902.

In the case of “TTEHSGIYVCHVSN-NH2 (listed as Homo sapiens) [Peptide 24]”, the “N4 MFI” value was 33,353.

Take “WTRLDGPLPSGVRVDGDT-NH2 (listed as Homo sapiens) [Peptide 28]”: the “N4 MFI” value was 41,302.

Still in this assay, the particulars now being: Run Two; Control 2 = 9.46.
With “RVDGDTLGFPPLTT-NH2 (listed as Homo sapiens) [Peptide 23]”, the “N4 MFI/IgG MFI” value amounted to 5.66.

In the case of “TTEHSGIYVCHVSN-NH2 (listed as Homo sapiens) [Peptide 24]”, the “N4 MFI/IgG MFI” value came to 8.76.

With “WTRLDGPLPSGVRVDGDT-NH2 (listed as Homo sapiens) [Peptide 28]”, the “N4 MFI/IgG MFI” value is on record as 10.83.

The same assay, now with this note: Run Two; IgG control primary antibody; Control 2 = 5,233.
“RVDGDTLGFPPLTT-NH2 (listed as Homo sapiens) [Peptide 23]”: the “IgG MFI” value is listed as 3,342.

As to “TTEHSGIYVCHVSN-NH2 (listed as Homo sapiens) [Peptide 24]”, the “IgG MFI” value is listed as 3,808.

Consider “WTRLDGPLPSGVRVDGDT-NH2 (listed as Homo sapiens) [Peptide 28]”, for which the “IgG MFI” value is listed as 3,815.

The assay is the same for the next values; noted with them: Run Two; antibody binding relative to Control 2 = 100.00.
“RVDGDTLGFPPLTT-NH2 (listed as Homo sapiens) [Peptide 23]”: the “nectin-4 antibody binding, percent of control” value was determined as 35.16.

Consider “TTEHSGIYVCHVSN-NH2 (listed as Homo sapiens) [Peptide 24]”, for which the “nectin-4 antibody binding, percent of control” value was 66.76.

Take “WTRLDGPLPSGVRVDGDT-NH2 (listed as Homo sapiens) [Peptide 28]”: the “nectin-4 antibody binding, percent of control” value was determined as 84.70.

The assay is the same for the next values; noted with them: flow cytometry; 150 μg/mL peptide.
With “RVDGDTLGFPPLTT-NH2 (listed as Homo sapiens) [Peptide 23]”, the “nectin-4 antibody binding compared to untreated control cells (in words)” value is recorded as “reduction in nectin-4 antibody binding”.

Consider “VLAPYRERVEFLRP-NH2 (listed as Homo sapiens) [Peptide 35]”, for which the “nectin-4 antibody binding compared to untreated control cells (in words)” value is “increased nectin-4 antibody binding”.

In the case of “GFIGTDVVLHCSFA-NH2 (listed as Homo sapiens) [Peptide 31]”, the “nectin-4 antibody binding compared to untreated control cells (in words)” value was “increased nectin-4 antibody binding”.

For the substance “ESQLNLTVMAKPTN-NH2 (listed as Homo sapiens) [Peptide 39]”, the “nectin-4 antibody binding compared to untreated control cells (in words)” value was “reduction in nectin-4 antibody binding”.

Regarding “NVAIYNPSMGVSVL-NH2 (listed as Homo sapiens) [Peptide 34]”, the “nectin-4 antibody binding compared to untreated control cells (in words)” value was “increased nectin-4 antibody binding”.

Staying with this assay, now noted: summary table; Nectin-4 antibody binding relative to control = 100.
On to “RVDGDTLGFPPLTT-NH2 (listed as Homo sapiens) [Peptide 23]”, for which the Flow binding is 35%.

“VLAPYRERVEFLRP-NH2 (listed as Homo sapiens) [Peptide 35]” came in with a Flow binding of 119%.

The substance “GFIGTDVVLHCSFA-NH2 (listed as Homo sapiens) [Peptide 31]” came in with a Flow binding of 117%.

“ESQLNLTVMAKPTN-NH2 (listed as Homo sapiens) [Peptide 39]” showed a Flow binding of 57%.

In turn, “NVAIYNPSMGVSVL-NH2 (listed as Homo sapiens) [Peptide 34]” displayed a Flow binding of 112%.

A further assay relates to ovarian cancer cell aggregation and spheroid formation. As to the kind of experiment: Spheroid assay for peptides (visual scale +1 to +5). Particulars: 24 hrs; visual scale of +1 to +5; Control = 2. The class given is cell-based, human. How it is done: Spheroids were formed from the NIH:OVCAR5 cell lines described above using the liquid overlay method. One milliliter of a single cell suspension was seeded at a concentration of 50,000 cells/ml in OptiMEM® media, into 24-well tissue culture plates coated with 0.5% Seakem agarose (in complete RPMI-1640). Plates were incubated at 37° C. in a humidified incubator with 5% CO2. At various time points up to 5 days, the plates were removed from the incubator and the spheroids were photographed with a Nikon CoolPix digital camera mounted on an Olympus CK2 inverted microscope with a 4× objective. The size of the spheroids was determined using the measure tool in Adobe Photoshop. The largest spheroids were quantified (20-90 spheroids/well), in a minimum of 8 wells, for a total of >300 spheroids per cell type.
The clinical relevance is that by blocking the formation of spheroids, the cells will be more sensitive to chemotherapy (which targets the single cells that proliferate more rapidly than spheroids).
The spheroid assay for peptides 1-30 were scored using a visual scale of +1 to +5. The controls were scored at +2 (24 hrs) and +4 (48 hrs). […] It may be harder to visually assess the size at 24 hours, since the spheroids are relatively small, but and perhaps some of the peptides are affecting cell division, and that is why the spheroids are smaller than the controls at 48 hours, but not 24 hrs (this can be easily assayed with an MTT assay).
The substance “RVDGDTLGFPPLTT-NH2 (listed as Homo sapiens) [Peptide 23]” had a Spheroid-24 of 1.

Substance “QRITHILHVSFLAE-NH2 (listed as Homo sapiens) [Peptide 18]” displayed a Spheroid-24 of 3.

The assay is the same for the next values; noted with them: 48 hrs; visual scale of +1 to +5; Control = 4.
Substance “RVDGDTLGFPPLTT-NH2 (listed as Homo sapiens) [Peptide 23]” registered a Spheroid-48 of 2.

Substance “TTEHSGIYVCHVSN-NH2 (listed as Homo sapiens) [Peptide 24]” showed a Spheroid-48 of 3.

In turn, “WTRLDGPLPSGVRVDGDT-NH2 (listed as Homo sapiens) [Peptide 28]” gave a Spheroid-48 of 2.

In turn, “QRITHILHVSFLAE-NH2 (listed as Homo sapiens) [Peptide 18]” showed a Spheroid-48 of 5.

For the origin of these results see US10907212B2, “Inhibitors of cell adhesion” (Regents of the University of Minnesota, priority 2016, dated 2021).
